Results published in patent US6916616B2, “Stabilized aqueous nucleoside triphosphate solutions” (priority 1996, dated 2005).

What was measured:
Format in all cases: physicochemical
[1] = Stress experiments of d-NTP solutions at 35° C., triphosphate content by HPLC; conditions: pH 8.3 compared to pH 7.5, 35° C., three independent stress experiments, samples between 7 and 89 days
Experimental: d-NTP solutions at a concentration of 100 to 110 mmol/l were adjusted to pH values between 7.5 and 8.3 with sodium hydroxide solution. The sample was stored at 35° C., 22° C., 4° C. and −20° C. Aliquots were removed at various time points and the purity was examined by means of HPLC. The relative amount of the tri, di and monophosphate as well as of the free base was determined by integrating the areas. The stabilization was estimated by the following formula from three independent stress experiments of d-NTPs at pH 8.3 and 7.5 at 35° C. in which samples were taken at intervals between 7 and 89 days. Δ content (pH 8.3)−Δ content (7.5)×100 Δ content (pH 7.5) in which Δ content (pH . . . )=content (t=0)−content (t)

[2] = Stabilization at room temperature (real-time model, 204 days, 20° C.); conditions: for difference in decrease of triphosphate content pH 8.3 vs pH 7.5: 204 days
Experimental: d-NTP solutions at a concentration of 100 to 110 mmol/l were adjusted to pH values between 7.5 and 8.3 with sodium hydroxide solution. The sample was stored at 35° C., 22° C., 4° C. and −20° C. Aliquots were removed at various time points and the purity was examined by means of HPLC. The relative amount of the tri, di and monophosphate as well as of the free base was determined by integrating the areas.
After 204 days (20° C.) the difference in the pH stabilization became apparent (in the real-time model). […] In the case of d-GTP solutions the triphosphate content decreased for example by ca. 6.8% at pH 7.5 and by ca. 5.2% at pH 8.3 (difference 23%).

[3] = Determination of the pH optimum of the d-NTPs (35 days at 35° C., HPLC); conditions: 100 to 110 mmol/l
Experimental: d-NTP solutions (dCTP, dTTP, dUTP) at a concentration of 100 to 110 mmol/l were adjusted to pH values between 7.5 and 12 (d-ATP, dGTP not pH 7.9 and 8.3) with sodium hydroxide solution. The sample was stressed for 35 days at 35° C. and subsequently the purity was examined by means of HPLC. The relative amount of the tri, di and monophosphate as well as of the free base was determined by integrating the areas.

Row | SMILES | stabilization, average value [1] | stabilization, maximum value [1] | stabilization, minimum value [1] | difference in decrease of triphosphate content pH 8.3 vs pH 7.5 [2] | decrease of triphosphate content ([2]; pH 7.5, 204 days) | decrease of triphosphate content ([2]; pH 8.3, 204 days) | degradation up to pH 12 [3]
1 | Nc1ncnc2c1ncn2[C@H]1C[C@H](O)[C@@H](COP(=O)(O)OP(=O)(O)OP(=O)(O)O)O1 [d-ATP] | 19% | 33% | 9% | 17% | ca. 7.6% | ca. 6.3% | 
2 | Nc1ccn([C@H]2C[C@H](O)[C@@H](COP(=O)(O)OP(=O)(O)OP(=O)(O)O)O2)c(=O)n1 [d-CTP] | 20% | 37% | 10% |  |  |  | deaminated at pH 12 to form d-UTP
3 | Nc1nc2c(ncn2[C@H]2C[C@H](O)[C@@H](COP(=O)(O)OP(=O)(O)OP(=O)(O)O)O2)c(=O)[nH]1 [d-GTP] | 21% | 30% | 12% | 23% | ca. 6.8% | ca. 5.2% | 
4 | Cc1cn([C@H]2C[C@H](O)[C@@H](COP(=O)(O)OP(=O)(O)OP(=O)(O)O)O2)c(=O)[nH]c1=O [d-TTP] | 5% | 17% | 26% |  |  |  | 
5 | O=c1ccn([C@H]2C[C@H](O)[C@@H](COP(=O)(O)OP(=O)(O)OP(=O)(O)O)O2)c(=O)[nH]1 [d-UTP] | 5% | 15% | 25% |  |  |  | 
